From US8623426B2, “Composition for preventing or treating diseases caused by influenza viruses” (Korea Institute of Oriental Medicine, priority 2009, dated 2014)
Read-outs that look alike come from different tables or passages of the source.

What was measured:
[1] = tested on: influenza virus; type: cell-based; conditions: 1.23 mg/ml
[2] = tested on: MDCK cells

## CCOC(=O)C1=C[C@@H](OC(CC)CC)[C@H](NC(C)=O)[C@@H](N)C1 [Tamiflu, oseltamivir]
[1]
  antiviral activity: no antiviral activity
[2]
  cytotoxicity: comparatively high cytotoxicity
[2]; 0.14 mg/ml
  Cell viability (%): 64.02%
[2]; 0.41 mg/ml
  Cell viability (%): 54.94%
[2]; 1.23 mg/ml
  Cell viability (%): 20.83%
  cytotoxicity: showed high cytotoxicity
